Active and inactive are the calls of the source.
Columns and labels:
[1] = inhibitors of intracellular T. cruzi replication, confirmation, NIH3T3 host cells, beta-gal luminescence (AID 2044); format: functional, cell-based;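 further: intracellular parasites grown in NIH/3T3 mouse fibroblasts as host cells; luminescent beta-galactosidase reporter signal from transgenic T. cruzi replicating inside host cells; inhibitors lower the luminescence signal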
[2] = cytotoxicity toward NIH3T3 fibroblasts, dose response, counter-screen, cell-based, ATP luminescence, mouse fibroblasts (AID 2010); format: functional;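 further: cells exposed to compound for about 90 hours before reading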
[3] = target: T1, High affinity choline transporter 1 (Homo sapiens, UniProt Q9GZV3); test: CHT inhibitors, dose response, cell-based, 5-point CRC, membrane potential dye (AID 504840); format: functional
T1 sequence (Q9GZV3 whole entry): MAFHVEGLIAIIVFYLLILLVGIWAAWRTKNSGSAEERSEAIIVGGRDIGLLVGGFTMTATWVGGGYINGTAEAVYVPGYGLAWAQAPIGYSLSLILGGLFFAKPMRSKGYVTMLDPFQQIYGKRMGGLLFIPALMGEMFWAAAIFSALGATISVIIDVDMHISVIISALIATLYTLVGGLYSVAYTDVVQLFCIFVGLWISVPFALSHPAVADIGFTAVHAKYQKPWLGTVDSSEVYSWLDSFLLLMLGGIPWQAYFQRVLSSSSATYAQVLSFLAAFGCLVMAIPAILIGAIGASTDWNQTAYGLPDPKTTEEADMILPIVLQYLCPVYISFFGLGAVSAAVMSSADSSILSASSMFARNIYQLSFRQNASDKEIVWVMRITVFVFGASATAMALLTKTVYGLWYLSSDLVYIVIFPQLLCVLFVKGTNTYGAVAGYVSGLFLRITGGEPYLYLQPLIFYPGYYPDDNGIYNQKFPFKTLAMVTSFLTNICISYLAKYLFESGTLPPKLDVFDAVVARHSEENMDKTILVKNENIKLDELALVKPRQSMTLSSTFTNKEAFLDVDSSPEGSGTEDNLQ

Protein skinhead-1 = target: T2, Protein skinhead-1 (Caenorhabditis elegans, UniProt P34707); format: functional
T2 sequence (P34707 whole entry): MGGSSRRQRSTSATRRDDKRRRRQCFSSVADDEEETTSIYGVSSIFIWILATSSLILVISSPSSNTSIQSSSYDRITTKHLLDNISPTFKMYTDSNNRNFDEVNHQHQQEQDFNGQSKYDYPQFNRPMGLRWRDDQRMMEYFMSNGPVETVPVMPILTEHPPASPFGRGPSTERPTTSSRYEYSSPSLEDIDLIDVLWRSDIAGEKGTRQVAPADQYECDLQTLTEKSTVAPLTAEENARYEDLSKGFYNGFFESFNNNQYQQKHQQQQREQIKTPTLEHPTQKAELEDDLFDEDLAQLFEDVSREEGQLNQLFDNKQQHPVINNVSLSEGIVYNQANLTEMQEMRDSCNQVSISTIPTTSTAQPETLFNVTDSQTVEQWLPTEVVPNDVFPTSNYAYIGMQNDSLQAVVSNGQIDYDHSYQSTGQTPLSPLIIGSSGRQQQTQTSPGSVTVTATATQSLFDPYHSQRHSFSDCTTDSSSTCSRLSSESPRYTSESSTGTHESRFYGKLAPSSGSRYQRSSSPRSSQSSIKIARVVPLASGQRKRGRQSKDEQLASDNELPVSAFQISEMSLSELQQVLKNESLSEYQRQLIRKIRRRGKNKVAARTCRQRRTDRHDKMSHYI

[4] = target: T3, DNA repair and recombination protein RAD54-like (Homo sapiens, UniProt Q92698); test: inhibitors of human RAD54 branch migration, confirmation, biochemical, fluorescence, cherry-picked samples, dose series (AID 651657); format: functional
T3 sequence (Q92698 whole entry): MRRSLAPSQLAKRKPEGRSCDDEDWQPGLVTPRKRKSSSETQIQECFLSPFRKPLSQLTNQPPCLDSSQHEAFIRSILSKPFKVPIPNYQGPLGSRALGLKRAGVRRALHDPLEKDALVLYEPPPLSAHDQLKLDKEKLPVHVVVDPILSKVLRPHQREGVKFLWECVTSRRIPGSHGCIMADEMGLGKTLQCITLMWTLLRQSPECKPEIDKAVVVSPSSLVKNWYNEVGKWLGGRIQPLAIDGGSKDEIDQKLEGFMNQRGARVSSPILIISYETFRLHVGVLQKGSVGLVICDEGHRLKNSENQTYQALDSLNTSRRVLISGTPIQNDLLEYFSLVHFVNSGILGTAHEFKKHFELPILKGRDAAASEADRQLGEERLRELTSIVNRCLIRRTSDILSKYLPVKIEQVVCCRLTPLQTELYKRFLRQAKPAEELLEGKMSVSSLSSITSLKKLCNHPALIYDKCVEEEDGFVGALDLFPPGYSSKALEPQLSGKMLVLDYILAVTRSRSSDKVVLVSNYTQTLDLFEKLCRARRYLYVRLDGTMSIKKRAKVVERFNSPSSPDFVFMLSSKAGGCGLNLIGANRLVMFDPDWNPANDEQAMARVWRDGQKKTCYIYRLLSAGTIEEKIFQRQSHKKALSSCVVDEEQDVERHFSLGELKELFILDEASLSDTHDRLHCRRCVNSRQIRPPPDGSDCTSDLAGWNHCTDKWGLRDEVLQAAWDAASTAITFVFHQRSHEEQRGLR

[5] = target: T4, DNA repair protein RAD52 homolog (Homo sapiens, UniProt P43351); format: functional, biochemical
T4 sequence (P43351 whole entry): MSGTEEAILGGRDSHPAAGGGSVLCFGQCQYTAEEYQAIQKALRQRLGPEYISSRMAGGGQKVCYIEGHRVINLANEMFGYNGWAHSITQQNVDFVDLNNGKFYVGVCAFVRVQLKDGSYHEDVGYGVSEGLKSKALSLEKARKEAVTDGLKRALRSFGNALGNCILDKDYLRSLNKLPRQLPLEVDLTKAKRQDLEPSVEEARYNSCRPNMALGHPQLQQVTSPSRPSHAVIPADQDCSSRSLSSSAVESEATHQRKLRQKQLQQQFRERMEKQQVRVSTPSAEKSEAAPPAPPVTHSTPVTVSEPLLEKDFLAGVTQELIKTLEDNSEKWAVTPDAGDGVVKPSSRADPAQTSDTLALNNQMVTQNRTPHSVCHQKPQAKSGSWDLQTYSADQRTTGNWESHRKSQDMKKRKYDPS

[6] = microbe, parasite or virus in culture; format: functional; details: Mycobacterium tuberculosis
[7] = Luminescence Cell-Based Dose Retest to Confirm Inhibitors of Cancer Stem Cells. [Related pubchem assays (depositor defined):AID2717, AID2721]; format: functional; details: Homo sapiens
[8] = Fluorescence-based cell-based high throughput dose response assay for inhibitors of the interaction of nucleotide-binding oligomerization domain containing 2 (NOD2) and the receptor-interacting serine-threonine kinase 2 (RIPK2).; format: functional; details: Homo sapiens
Paired box protein Pax-8 = Paired box protein Pax-8 (Homo sapiens, UniProt Q06710); test: inhibitors of PAX8-driven TPO luciferase reporter, dose response, RMG-I cells, cherry-pick (AID 687027); format: functional, cell-based;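 further: luciferase reporter driven by Pax8 target thyroperoxidase promoter measured by SteadyGlo luminescence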
Sequence of Paired box protein Pax-8 (Q06710 whole entry): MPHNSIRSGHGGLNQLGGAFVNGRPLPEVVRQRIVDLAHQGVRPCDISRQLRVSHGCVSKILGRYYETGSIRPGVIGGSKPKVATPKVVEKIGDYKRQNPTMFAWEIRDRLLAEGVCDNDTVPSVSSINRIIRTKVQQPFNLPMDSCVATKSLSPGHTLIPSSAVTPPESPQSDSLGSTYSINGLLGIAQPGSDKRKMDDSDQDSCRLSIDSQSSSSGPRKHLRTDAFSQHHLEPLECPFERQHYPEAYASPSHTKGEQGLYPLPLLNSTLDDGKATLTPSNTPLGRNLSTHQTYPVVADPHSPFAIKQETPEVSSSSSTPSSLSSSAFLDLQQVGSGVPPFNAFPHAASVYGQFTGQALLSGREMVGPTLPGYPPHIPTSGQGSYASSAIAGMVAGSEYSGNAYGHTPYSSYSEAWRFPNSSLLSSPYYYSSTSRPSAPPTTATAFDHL

cells [9] = format: functional, cell-based
cells [10] = format: functional, cell-based; remark: listed apart in the source
[11] = target: T5, Short transient receptor potential channel 4 (Mus musculus, UniProt Q9QUQ5); test: mouse TRPC4 channel inhibitors, dose response, cell-based, HEK293 TRPC4/mu-opioid, Fluo-4 calcium (AID 434942); format: functional;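 further: potency of inhibitors blocking the TRPC4 calcium response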
T5 sequence (Q9QUQ5 whole entry): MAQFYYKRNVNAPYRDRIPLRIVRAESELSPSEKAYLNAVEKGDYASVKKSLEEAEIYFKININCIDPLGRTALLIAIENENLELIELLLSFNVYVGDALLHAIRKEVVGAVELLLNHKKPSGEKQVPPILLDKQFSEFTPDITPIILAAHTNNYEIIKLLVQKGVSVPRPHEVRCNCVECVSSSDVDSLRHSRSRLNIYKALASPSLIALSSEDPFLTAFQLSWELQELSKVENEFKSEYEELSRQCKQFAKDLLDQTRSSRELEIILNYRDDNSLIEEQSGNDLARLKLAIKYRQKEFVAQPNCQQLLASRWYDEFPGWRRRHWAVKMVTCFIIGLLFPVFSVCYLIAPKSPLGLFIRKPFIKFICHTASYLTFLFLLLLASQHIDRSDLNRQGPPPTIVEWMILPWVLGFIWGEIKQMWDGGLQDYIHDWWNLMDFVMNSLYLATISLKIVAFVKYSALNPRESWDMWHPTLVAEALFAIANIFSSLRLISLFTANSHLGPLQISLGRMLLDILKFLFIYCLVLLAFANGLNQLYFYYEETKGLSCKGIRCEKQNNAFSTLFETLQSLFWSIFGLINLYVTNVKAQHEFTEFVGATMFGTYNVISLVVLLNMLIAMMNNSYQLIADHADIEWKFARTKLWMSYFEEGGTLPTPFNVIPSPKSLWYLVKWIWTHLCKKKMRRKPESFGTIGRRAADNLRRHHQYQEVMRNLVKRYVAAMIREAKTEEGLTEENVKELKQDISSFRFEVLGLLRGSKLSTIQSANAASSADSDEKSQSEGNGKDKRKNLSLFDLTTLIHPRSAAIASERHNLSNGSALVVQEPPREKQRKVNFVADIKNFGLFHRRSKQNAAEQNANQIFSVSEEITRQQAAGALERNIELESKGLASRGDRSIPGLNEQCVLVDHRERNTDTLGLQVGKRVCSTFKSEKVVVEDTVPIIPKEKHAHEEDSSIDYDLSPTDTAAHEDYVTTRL

INS1 = test: beta cell apoptosis inhibitors, cytokine rescue, dose response, luminescence, retest (AID 449756); format: functional, cell-based; details: Rattus norvegicus;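 further: cell death triggered by IL-1 beta plus TNF-alpha plus IFN-gamma mixture; protective hits raise ATP signal compared with cytokine alone wells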
Hexokinase = target: T6, Hexokinase (Trypanosoma brucei, UniProt Q38C41); test: Confirmation assay for inhibitors of Trypanosoma brucei hexokinase 1-Analogue-first series. [Related pubchem assays (depositor defined):AID1430, AID1632, AID2516, AID2560, AID2579, AID2600, AID449725, AID492951]; format: functional
T6 sequence (Q38C41 whole entry): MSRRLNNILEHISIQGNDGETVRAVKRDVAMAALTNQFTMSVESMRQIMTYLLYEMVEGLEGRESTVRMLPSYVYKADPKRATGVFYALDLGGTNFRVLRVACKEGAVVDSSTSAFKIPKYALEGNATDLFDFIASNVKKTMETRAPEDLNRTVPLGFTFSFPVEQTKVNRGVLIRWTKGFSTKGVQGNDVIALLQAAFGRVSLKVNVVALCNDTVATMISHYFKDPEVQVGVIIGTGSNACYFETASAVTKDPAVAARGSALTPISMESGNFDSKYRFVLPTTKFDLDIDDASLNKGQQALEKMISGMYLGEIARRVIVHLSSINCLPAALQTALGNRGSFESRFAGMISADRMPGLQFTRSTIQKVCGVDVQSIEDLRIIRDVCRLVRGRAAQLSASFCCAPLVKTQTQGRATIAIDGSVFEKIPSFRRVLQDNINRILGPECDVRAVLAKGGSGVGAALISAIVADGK

[12] = target: Glucose-6-phosphate 1-dehydrogenase (Homo sapiens, UniProt P11413); test: human G6PD enzyme inhibitors, dose response, selectivity assay for P. falciparum G6PD inhibitor project, biochemical, fluorescence (AID 504792); format: functional
Sequence of Glucose-6-phosphate 1-dehydrogenase (P11413 whole entry): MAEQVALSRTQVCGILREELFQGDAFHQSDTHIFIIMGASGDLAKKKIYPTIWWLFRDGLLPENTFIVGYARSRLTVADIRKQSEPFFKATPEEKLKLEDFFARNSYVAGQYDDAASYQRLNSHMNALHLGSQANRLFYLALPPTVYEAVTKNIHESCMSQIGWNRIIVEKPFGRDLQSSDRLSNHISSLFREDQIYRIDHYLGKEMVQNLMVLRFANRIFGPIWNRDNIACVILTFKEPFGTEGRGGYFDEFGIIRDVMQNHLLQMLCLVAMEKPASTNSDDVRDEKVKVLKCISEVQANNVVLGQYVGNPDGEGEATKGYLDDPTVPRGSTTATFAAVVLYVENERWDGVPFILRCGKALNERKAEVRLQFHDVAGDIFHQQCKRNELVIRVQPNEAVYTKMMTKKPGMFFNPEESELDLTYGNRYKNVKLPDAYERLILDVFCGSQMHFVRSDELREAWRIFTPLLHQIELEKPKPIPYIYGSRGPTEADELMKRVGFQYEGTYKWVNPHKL

[13] = HeLa cell cytotoxicity, dose response, cytotoxicity control for MgcRacGAP inhibitor project (AID 624300); format: functional
[14] = target: T7, Rac GTPase-activating protein 1 (Homo sapiens, UniProt Q9H0H5); test: MgcRacGAP GTPase-activating activity inhibitors, confirmation, biochemical, ADP Hunter fluorescence, primary and confirmatory (AID 624330); format: functional
T7 sequence (Q9H0H5 whole entry): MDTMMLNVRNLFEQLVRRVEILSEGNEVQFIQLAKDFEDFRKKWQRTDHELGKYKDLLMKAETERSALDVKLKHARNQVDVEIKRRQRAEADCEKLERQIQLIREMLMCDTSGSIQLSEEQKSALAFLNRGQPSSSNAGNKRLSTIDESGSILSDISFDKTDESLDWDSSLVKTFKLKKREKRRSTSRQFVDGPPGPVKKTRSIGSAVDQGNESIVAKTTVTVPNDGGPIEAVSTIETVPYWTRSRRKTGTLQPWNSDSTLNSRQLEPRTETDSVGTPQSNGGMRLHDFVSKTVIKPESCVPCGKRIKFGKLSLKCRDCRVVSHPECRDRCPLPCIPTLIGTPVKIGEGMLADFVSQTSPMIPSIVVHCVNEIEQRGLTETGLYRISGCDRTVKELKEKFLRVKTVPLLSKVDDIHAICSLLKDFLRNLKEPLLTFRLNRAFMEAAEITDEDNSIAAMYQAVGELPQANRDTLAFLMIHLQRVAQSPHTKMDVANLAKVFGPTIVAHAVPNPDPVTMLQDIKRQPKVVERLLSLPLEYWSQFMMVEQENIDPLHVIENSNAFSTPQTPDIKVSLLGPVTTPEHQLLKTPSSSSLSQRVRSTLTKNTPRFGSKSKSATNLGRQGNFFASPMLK

| SMILES | EC50 [1] | EC50 [2] | AC50 [4] | AC50 [5] | CC50 [13] | IC50 [14] | also measured |
| --- | --- | --- | --- | --- | --- | --- | --- |
| CCN1CCN(c2cc(C)c3cc(NC(=S)N4CCCCC4)ccc3n2)CC1 | 2.28 µM (active) | > 60 µM (not active) | 100 µM (inactive) | 14.1 µM (active) | – | – | IC50 [3]: 12.6 µM (active); IC50 (Protein skinhead-1): > 100 µM (inactive) |
| CN1CCN(c2ccc(S(=O)(=O)N3CCCCC3)cc2NC(=O)/C=C/c2ccc(Cl)c([N+](=O)[O-])c2)CC1 | 1.85 µM (active) | > 60 µM (not active) | – | – | – | – | CC50 [6]: 23.3 µM (active); AC50 [7]: 5.48 µM (active); IC50 [8]: 6.18 µM (active); AC50 (Paired box protein Pax-8): 12.6 µM (active) |
| c1ccc(CNc2c3ccccc3nc3ccccc23)cc1 | 0.931 µM (active) | 8.87 µM (active) | 5.21 µM (active) | 12.1 µM (active) | – | – | EC50 (cells [9]): > 350 µM (not active); EC50 (cells [10]): > 350 µM (not active); EC50 [11]: 1.33 µM (active); AC50 (INS1): 3.79 µM (active) |
| O=c1c2ccccc2sn1-c1ccccc1F | – | – | – | – | 72.2 µM (active) | 41 µM (active) | IC50 (Hexokinase): 2.26 µM (active); IC50 [12]: 17.8 µM (active) |
| Cc1cc(-c2ccccc2)nc(N/N=C/c2ccc(N(C)C)cc2)n1 | – | – | – | – | 100 µM (active) | 74.7 µM (active) | – |
